Results as given in patent US6207411A, “Bacteriocins” (priority 1995, dated 2001).

Tests used:
[1] = system: Pronase E; test: Protease sensitivity assay; conditions: enzyme 50 mg/ml spotted beside bacteriocin; indicator L. lactis HP
Protocol: (§1) FIGS. 2A, 2B, 2C, 2D, and 2E. Protease Sensitivity Assay. Filtered cell-free bacteriocin solution and enzyme solution (A represents control, no enzyme; B, alpha-chymotrypsin; C, trypsin; D, pronase E and E represents proteinase K) were spotted 1 cm apart on GM17 agar plates and subsequently overlaid with the indicator L. lactis strain HP.
(§2) The following enzymes were dissolved in sterile distilled H2 O (SDW) to a final concentration of 50 mg/ml: Trypsin (type II, Sigma Chemical Co., Poole, Dorset, England), alpha-chymotrypsin (type II, Sigma), Proteinase K (Sigma), Pronase E (type XIV, Sigma), Catalase (Sigma). Pepsin was dissolved in 0.02N HCl, also to a final concentration of 50 mg/ml. All enzyme solutions were filter sterilised using disposable filters (Rotrand/Red rim 0.2 μm, Schleicher & Schuell). 20 μl aliquots of filtered cell-free bacteriocin solution and 20 μl of each enzyme solution were spotted 1 cm apart on GM17 agar plates and dried for 30 min. All plates were incubated overnight at 30° C. The plates move subsequently overlaid with the indicator organism. […] was evident as a zone of inhibition. Controls included plates with spots of either bacteriocin solution or enzyme solution.

[2] = target: T1, Proteinase K (Parengyodontium album, UniProt P06873); test: Protease sensitivity assay; conditions: enzyme 50 mg/ml spotted beside bacteriocin; indicator L. lactis HP
T1 construct: purchased Sigma
Protocol: as §1, §2

[3] = target: T2, Trypsin (Sus scrofa, UniProt P00761); test: Protease sensitivity assay; conditions: enzyme 50 mg/ml spotted beside bacteriocin; indicator L. lactis HP
T2 construct: purchased Sigma Chemical Co., Poole, Dorset, England type II
Protocol: as §1, §2

[4] = target: T3, alpha-chymotrypsin (Bos taurus, UniProt P00766, DEL14-15/DEL147-148); test: Protease sensitivity assay; conditions: enzyme 50 mg/ml spotted beside bacteriocin; indicator L. lactis HP
T3 construct: purchased Sigma type II
Protocol: as §1, §2

[5] = system: Pepsin; test: Protease sensitivity assay; conditions: enzyme 50 mg/ml in 0.02N HCl
Protocol: as §2

[6] = system: Catalase; test: Protease sensitivity assay (catalase); conditions: enzyme 50 mg/ml
Protocol: as §2

[7] = assay type: physicochemical; conditions: pH 9, up to 100° C., 10 minutes; 100% = unheated at that pH
Protocol: FIG. 6. Effect of heating at 60° C. to 121° C. for 10 minutes on the stability of lacticin 3147 at pH5, pH7, pH9. 100% activity is the activity at pH 5, 7 and 9 with no heating.
A cell-free bacteriocin was exposed to various pH/temperature treatments. Samples were heated to 60, 70, 80, 90, 100, 110 and 121° C. at pH5, pH7 and pH9 for 10 min. Following treatment, all solutions were rapidly cooled and bacteriocin activity was assayed by the well diffusion method.
Three samples of bacteriocin were brought to a pH of 5, 7 and 9 and aliquots of each were subsequently heated to 60° C., 70° C., 80° C., 90° C., 100° C., 110° C. and 121° C. for 10 minutes. The activity at each pH prior to heat treatment was measured and was taken to be 100% for that pH value. From the graphical representation in FIG. 6, it can be seen that lacticin 3147 is heat-stable, particularly at an acid pH.

[8] = system: L. lactis subsp. lactis MG1614; test: Spontaneous resistance on media containing lacticin 3147; assay type: cell-based, Lactococcus lactis; conditions: MG1614 plated up to 10^8 -10^9 CFU/ml
Protocol: Plates containing bacteriocin were prepared as follows. A cell-free, sterile bacteriocin solution was obtained from an overnight culture of L. lactis DPC3147 grown in GM17 by first centrifuging at 8000 g (Sorvall RC-5B) for 10 min. The resulting supernatant was then sterilized by filtering with Millipore HVLP filters (0.45 um) and tempered to 45° C. An equal volume was then added to double strength GM17 and the plates were poured. Where needed, streptomycin was added to agar at a concentration of 500 μg/ml.
During initial genetic work with lacticin 3147, it was observed that the bacteriocin-producing property was an easily lost trait. Preliminary experiments were attempted to establish if bacteriocin production by DPC3147 was encoded on a conjugally transmissable piece of DNA. These conjugal matings involved using DPC3147 as the donor strain and the plasmid-free strain, L. lactis subsp. lactis MG1614, which is streptomycin resistant as the recipient. The selection of transconjugants from such matings was achieved using the plasmid-encoded bacteriocin immunity/resistance determinants as a selectable marker. This involved the incorporation of lacticin 3147 into the selective media. […] The incorporation of lacticin 3147 into selective media may thus form the basis for a novel food-grade marker system for use in genetic manipulation of lactococci. […]

[9] = system: L. lactis AM2; test: Bacteriocin assayed directly in cheese samples; parameters: species or system Lactococcus lactis
Protocol: Bacteriocin activity was assayed from cheese samples as follows. Cheese samples were initially macerated in equal volumes of distilled water in a stomacher (Lab-Blender 400) for 15 min and heated to 80° C. for 10 min. Then aliquots of 50 μl were dispensed in wells and bacteriocin activity calculated as the difference in area of the zone of inhibition (in mm2) and the area of the well (as outlined previously).
Since then we have assayed the bacteriocin in these cheeses. In Cheese trial 1 the presence of lacticin 3147 in take test cheese was confirmed (using L. lactis AM2 as the indicator strain) at a level of approximately 1.280 AU/ml which remained constant in the cheese over the 28-week ripening period (FIG. 13A). In contrast, no anti-microbial activity was detected in the control cheese. Similarly, the amount of bacteriocin detected in cheese trial 2 was approximately 1.280 AU/ml which also remained constant over the ripening period (FIG. 13B). Thus the level of bacteriocin observed in the cheese corresponds to the number of NSLABs which occur in the cheese during ripening.

[10] = Bacteriocin activity in teat seals; conditions: teat seal without Tween 20 or 80 (2% required)
Protocol: FIG. 14A. Antimicrobial effectiveness of lacticin 3147 requires the presence of Tween Au/ml) has been added.
TY (Tryptone 2.5 g/L, Yeast Extract 5 g/L, Glucose 10 g/L, b-glycerophosphate 19 g/L, MgSO4.7H2O 0.25 g/L, MnSO4.4H2O 0.05 g/L, pH 6.75) broth was prefiltered (15 filter/liter) with HA (Millipore) filters to remove proteins in the media which would bind to the filters. L. lactis DPC 3147 was then grown overnight in the filtered TY-broth. The culture was centrifuged at 10,000 rpm for 15 minutes and then filtered through HVLP filters (Millipore). The bacteriocin was then bound to HA filters (8 filters/liter) and subsequently harvested from the filters using acetone/5 mM Phosphate-Buffer, pH 7.0 (2:1). The mix was subsequently centrifuged and the acetone removed by evaporation. The resultant bacteriocin preparation was freeze-dried and dissolved in sterile distilled water. This was then assayed as above. To add bacteriocin into the teat seal 17,000 units of the bacteriocin prepared as above was added to the seal in a sterile petri disc. On mixing, the bacteriocin and seal formed as emulsion which was then aseptically transferred to a syringe (Cross Vetpharm).

[11] = system: Streptococcus dysgalactiae M; test: Effectiveness on Streptococcus dysgalactiae M (plate counts); assay type: cell-based; conditions: 10.240 AU/ml, stationary phase cells, 2 hours, 37° C.
Protocol: FIG. 14B. Effect of adding lacticin 3147 (10.240 AU/ml) to stationary cells of Streptococcus dysgalactiae.
10 μl from a overnight culture was added to 490 μl of sterile 50 mM phosphate-buffer. pH 7.0 500 μl lacticin 3147 (10,000 AU/ml) was then added and plate counts were carried out after 0, 15, 30, 60, 90 and 120 minutes at 37° C. to assess cell viability.

[12] = system: Streptococcus dysgalactiae M; test: Frequency of resistance development of a mastitic strain; assay type: cell-based; conditions: prolonged exposure
Text: As a result of the growing concern over the use of antibiotics for the treatment and prevention of disease in animals the potential of using lacticin 3147 in the prevention of bovine mastitis was investigated. To achieve this the bacteriocin was incorporated into teat seals preparations. These seals are manufactured by Cross Vetpharm (Broomhill Road, Tallaght, Dublin 24. Ireland) and act as a physical barrier in the cow against infection. The bacteriocin provides an additional anti-microbial barrier over the physical one provided by the seal itself. Incorporation of the bacteriocin into the teat seals first required the preparation of the bacteriocin in a highly concentrated and semi-purified form. The anti-microbial effectiveness of lacticin 3147 in the environment of the seal required the addition of either Tween 20 or 80 in concentrations of 2% (FIG. 14A). […] Having successfully prepared effective bacteriocin-containing teat seals a number of animal trials were then performed. These involved exposure of the modified seals to the animal for different time periods after which the seals were removed. […] Other aspects of this study focused on the frequency at which a mastitic strain can develop resistance to lacticin 3147 since this could limit its practical usefulness as an effective antimicrobial under certain conditions. […]

[13] = system: four cariogenic streptococci; test: Sensitivity of oral streptococci; assay type: cell-based; conditions: four cariogenic strains from infected patients
Protocol: Four cariogenic streptococcal strains isolated from infected patients were grown overnight at 30° C. in Brain Heart Infusion broth. These strains were obtained from Dr. Ger Fitzgerald, University College Cork. The relative sensitivity of each of these strains to the bacteriocin was then determined in comparison to L. lactis HP.

[14] = system: DPC3147; test: MIC of pure nisin; assay type: cell-based, Lactococcus lactis; conditions: pure nisin against strain DPC3147
Text: (§3) As expected, catalase had no effect on the antimicrobial activity of the 3147 bacteriocin thus eliminating the possibility that the antimicrobial activity may be due to hydrogen peroxide. In addition, none of the strains producing lacticin 3147 were capable of fermenting sucrose. This provides additional evidence that this bacteriocin is not nisin, since the genes encoding nisin (nis A) is linked to genes responsible for sucrose catabolism on the nisin-sucrosetransposon. Tn5276 (Horn et. al., 1991). Thus, all those Nip^+ (nisin-producing) strains studied to date are in addition Suc^+ (Sucrose-fermenting).

[15] = system: NCDO496; test: MIC of pure nisin; assay type: cell-based, Lactococcus lactis; conditions: pure nisin against strain NCDO496
Text: as §3

T2 sequence (P00761 9-231): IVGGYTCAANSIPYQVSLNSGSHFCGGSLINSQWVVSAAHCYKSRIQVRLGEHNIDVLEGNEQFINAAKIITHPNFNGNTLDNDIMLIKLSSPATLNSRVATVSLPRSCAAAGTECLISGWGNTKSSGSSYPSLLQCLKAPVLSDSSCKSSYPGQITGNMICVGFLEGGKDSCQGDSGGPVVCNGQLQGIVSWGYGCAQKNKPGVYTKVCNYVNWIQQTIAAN
T1 sequence (P06873 106-384): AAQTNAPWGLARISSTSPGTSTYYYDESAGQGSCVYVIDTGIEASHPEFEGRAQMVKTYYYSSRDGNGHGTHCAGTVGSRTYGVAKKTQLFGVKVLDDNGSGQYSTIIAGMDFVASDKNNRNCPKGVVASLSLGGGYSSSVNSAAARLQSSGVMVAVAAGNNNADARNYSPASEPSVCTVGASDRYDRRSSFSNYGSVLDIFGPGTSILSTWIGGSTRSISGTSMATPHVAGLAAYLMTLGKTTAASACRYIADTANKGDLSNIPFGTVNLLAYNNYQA

Row | Substance | Sensitivity to pronase E [1] | Sensitivity to proteinase K [2] | Sensitivity to trypsin [3] | Sensitivity to alpha-chymotrypsin [4] | Sensitivity to pepsin [5] | Effect of catalase on antimicrobial activity [6] | Activity maintained after heating [7] | Growth of sensitive cells on media containing lacticin 3147 [8] | Level of bacteriocin in cheese ([9]; cheese trial 1, constant over the 28-week ripening period) | Level of bacteriocin in cheese ([9]; cheese trial 2, constant over the ripening period) | Bacteriocin activity in treated seals [10] | Kill [11] [%] | Bacterial cells that developed increased tolerance [12] [%] | Sensitivity relative to L. lactis HP [13] [%] | minimum concentrations (MIC) required for inhibition [14] [µg/mL] | minimum concentrations (MIC) required for inhibition [15] [µg/mL]
1 | lacticin 3147 | sensitive | sensitive | sensitive | sensitive | not to pepsin | no effect | more than 50% | failed to grow | approximately 1.280 AU/ml | approximately 1.280 AU/ml | negligible bacteriocin activity | 99.99 | 0.003 | 12.5 |  | 
2 | nisin |  |  |  |  |  |  |  |  |  |  |  |  |  |  | 100 | 400
